These results are taken from patent US12129246B1, “Hydroquinazoline derivatives for the treatment of a disease or disorder” (Novartis AG, priority 2023, dated 2024).

In one experiment the target is T1, human NPR1 (Homo sapiens, UniProt P16066).
T1 construct: host or cells: CHO-K1
T1 sequence (P16066 33-1061): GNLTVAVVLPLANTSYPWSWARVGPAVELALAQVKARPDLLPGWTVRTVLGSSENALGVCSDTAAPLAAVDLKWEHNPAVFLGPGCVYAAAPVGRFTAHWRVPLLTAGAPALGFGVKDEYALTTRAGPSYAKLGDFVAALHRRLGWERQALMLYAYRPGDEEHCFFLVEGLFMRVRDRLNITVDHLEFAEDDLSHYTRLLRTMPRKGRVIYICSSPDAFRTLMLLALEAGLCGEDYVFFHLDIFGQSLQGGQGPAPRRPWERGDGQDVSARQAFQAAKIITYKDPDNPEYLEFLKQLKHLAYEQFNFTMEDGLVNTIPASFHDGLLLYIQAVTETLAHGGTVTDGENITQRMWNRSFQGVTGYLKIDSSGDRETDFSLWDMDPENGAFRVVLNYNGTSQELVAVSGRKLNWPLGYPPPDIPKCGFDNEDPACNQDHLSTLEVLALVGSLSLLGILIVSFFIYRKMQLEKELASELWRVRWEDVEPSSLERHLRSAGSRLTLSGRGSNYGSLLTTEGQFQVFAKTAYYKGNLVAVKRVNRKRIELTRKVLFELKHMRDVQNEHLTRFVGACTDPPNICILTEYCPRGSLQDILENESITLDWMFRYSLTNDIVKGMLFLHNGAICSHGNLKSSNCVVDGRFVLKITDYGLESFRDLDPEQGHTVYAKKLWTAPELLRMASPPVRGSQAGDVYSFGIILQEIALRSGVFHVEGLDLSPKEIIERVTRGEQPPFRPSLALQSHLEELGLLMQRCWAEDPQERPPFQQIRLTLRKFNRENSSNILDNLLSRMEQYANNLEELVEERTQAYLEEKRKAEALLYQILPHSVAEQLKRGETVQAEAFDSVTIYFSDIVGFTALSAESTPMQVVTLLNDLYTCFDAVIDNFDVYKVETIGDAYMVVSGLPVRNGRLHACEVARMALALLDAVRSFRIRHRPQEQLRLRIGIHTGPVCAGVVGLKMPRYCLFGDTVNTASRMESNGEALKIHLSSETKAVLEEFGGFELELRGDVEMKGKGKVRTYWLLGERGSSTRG
Nature of the experiment: Cellular cGMP production assay, human NPR1 expressing CHO-K1 cells (CisBio HTRF). Type of experiment: cell-based. Conditions: for AC50: cGMP production, 30 min at 37° C., 12-point dose-response from 30 μM; for Human NPR1 Amax (% of ANP): maximum cGMP production as percentage of the maximum cGMP produced with ANP. An outline of the steps: (§1)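 12-pt 3-fold dose-response, top 30 μM; buffer PBS + 0.1% BSA + 1 mM IBMX (PDE inhibitor); 30 min, 37 °C. Lyse, add cGMP-d2 + anti-cGMP-cryptate, 1 h RT. Ex 317 / em 665 nm; Delta F converted to cGMP via calibrator standard curve.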

A further experiment deals with monkey NPR1 (Macaca fascicularis, UniProt A0A7N9DBT9). Nature of the experiment: Cellular cGMP production assay, monkey NPR1 expressing CHO-K1 cells (CisBio HTRF). Type of experiment: cell-based. Conditions: for Monkey NPR1 Amax (% of ANP): maximum cGMP production as percentage of the maximum cGMP produced with ANP. An outline of the steps:
as §1

[1] abbreviates: cGMP production, monkey NPR1 CHO-K1 cells, 30 min at 37° C., 12-point dose-response from 30 μM, read-out: Monkey NPR1 AC50.

Read-outs that look alike come from different tables or passages of the source.

monkey NPR1, sequence (A0A7N9DBT9 entry or part of it): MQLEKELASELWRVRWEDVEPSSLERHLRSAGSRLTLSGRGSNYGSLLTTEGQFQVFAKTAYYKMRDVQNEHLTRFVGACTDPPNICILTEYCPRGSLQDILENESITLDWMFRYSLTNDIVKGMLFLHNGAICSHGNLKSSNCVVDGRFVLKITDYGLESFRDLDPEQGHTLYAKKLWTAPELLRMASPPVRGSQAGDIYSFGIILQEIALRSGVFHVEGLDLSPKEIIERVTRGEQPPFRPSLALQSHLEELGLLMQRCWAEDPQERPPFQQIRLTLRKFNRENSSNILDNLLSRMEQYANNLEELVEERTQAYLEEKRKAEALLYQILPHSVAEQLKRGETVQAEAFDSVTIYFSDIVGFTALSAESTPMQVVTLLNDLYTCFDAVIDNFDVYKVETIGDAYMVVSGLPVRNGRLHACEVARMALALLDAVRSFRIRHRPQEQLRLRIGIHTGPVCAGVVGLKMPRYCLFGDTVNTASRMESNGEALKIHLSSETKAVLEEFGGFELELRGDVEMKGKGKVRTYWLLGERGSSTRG

Regarding `CC[C@@H](Nc1nc2c(c(N[C@@H](CN3CC4CCC3C4)c3ccccc3)n1)C[C@H](c1ccccc1)CC2)[C@H]1CC[C@H](C(=O)O)CC1` (stereo partly drawn) [Compound 160, (1R,4r)-4-((1R)-1-(((6R)-4-(((1R)-2-(2-azabicyclo[2.2.1]heptan-2-yl)-1-phenylethyl)amino)-6-phenyl-5,6,7,8-tetrahydroquinazolin-2-yl)amino)propyl)cyclohexane-1-carboxylic acid], on human NPR1, the AC50 was found to be 1620 nM and the “Human NPR1 Amax (% of ANP)” value was 94.868 % of ANP. Moreover, on monkey NPR1 (setting [1]), the AC50 came out at 1430 nM. Also, the “Monkey NPR1 Amax (% of ANP)” value at monkey NPR1 (monkey NPR1 CHO-K1 cells) was 102.098 % of ANP.
In the same order, the values of `CC[C@H]([C@H]1CC[C@H](C(=O)O)CC1)N(C)c1nc2c(c(N[C@@H](CN3CCC[C@H](C)C3)c3ccnn3C)n1)C[C@H](c1cccc(F)c1)CC2` [Compound 161, (1R,4r)-4-((R)-1-(((R)-6-(3-fluorophenyl)-4-(((S)-1-(1-methyl-1H-pyrazol-5-yl)-2-((S)-3-methylpiperidin-1-yl)ethyl)amino)-5,6,7,8-tetrahydroquinazolin-2-yl)(methyl)amino)propyl)cyclohexane-1-carboxylic acid] are 1680 nM, 108.479 % of ANP, 989 nM and 97.242 % of ANP.
`CC[C@H]([C@H]1CC[C@H](C(=O)O)CC1)N(C)c1nc2c(c(N[C@@H](CN3CCCC4(CCOC4)C3)c3cnn(CC)c3)n1)C[C@H](c1ccccc1)CC2` (stereo partly drawn) [Compound 162, (1R,4r)-4-((1R)-1-(((6R)-4-(((1R)-1-(1-ethyl-1H-pyrazol-4-yl)-2-(2-oxa-7-azaspiro[4.5]decan-7-yl)ethyl)amino)-6-phenyl-5,6,7,8-tetrahydroquinazolin-2-yl)(methyl)amino)propyl)cyclohexane-1-carboxylic acid]: the AC50 on human NPR1 is 1700 nM; at monkey NPR1 (setting [1]), 1310 nM. Moreover, the “Human NPR1 Amax (% of ANP)” value on human NPR1 is listed as 83.721 % of ANP. The “Monkey NPR1 Amax (% of ANP)” value at monkey NPR1 (monkey NPR1 CHO-K1 cells) was 89.971 % of ANP.
`CC[C@H]([C@H]1CC[C@H](C(=O)O)CC1)N(C)c1nc2c(c(N[C@@H](CN3CCC[C@H](O)C3)c3cnn(CC)c3)n1)C[C@H](c1cccc(F)c1)CC2` [Compound 163, (1R,4r)-4-((R)-1-(((R)-4-(((R)-1-(1-ethyl-1H-pyrazol-4-yl)-2-((S)-3-hydroxypiperidin-1-yl)ethyl)amino)-6-(3-fluorophenyl)-5,6,7,8-tetrahydroquinazolin-2-yl)(methyl)amino)propyl)cyclohexane-1-carboxylic acid]: the AC50 at human NPR1 turned out to be 1710 nM; at monkey NPR1 (setting [1]), 1270 nM. Besides, the “Human NPR1 Amax (% of ANP)” value at human NPR1 was 103.903 % of ANP. The “Monkey NPR1 Amax (% of ANP)” value on monkey NPR1 (monkey NPR1 CHO-K1 cells) is given as 102.145 % of ANP.
On to `CC[C@H]([C@H]1CC[C@H](C(=O)O)CC1)N(C)c1nc2c(c(N[C@@H](CN3C4CCCC3CC4)c3ccnn3C)n1)C[C@H](c1cccc(F)c1)CC2` [Compound 164, (1R,4r)-4-((1R)-1-(((6R)-4-(((1S)-2-(8-azabicyclo[3.2.1]octan-8-yl)-1-(1-methyl-1H-pyrazol-5-yl)ethyl)amino)-6-(3-fluorophenyl)-5,6,7,8-tetrahydroquinazolin-2-yl)(methyl)amino)propyl)cyclohexane-1-carboxylic acid], for which the AC50 amounted to 1780 nM on human NPR1 and 946 nM on monkey NPR1. Moreover, the “Human NPR1 Amax (% of ANP)” value at human NPR1 is recorded as 94.088 % of ANP. The “Monkey NPR1 Amax (% of ANP)” value on monkey NPR1 (monkey NPR1 CHO-K1 cells) is reported as 92.193 % of ANP.
For the compound `CC[C@@H](Nc1nc2c(c(N[C@@H](CN(C)C)c3ccccc3)n1)C[C@H](c1ccccc1)CC2)[C@H]1CC[C@H](C(=O)O)CC1` [Compound 165, (1R,4r)-4-((R)-1-(((R)-4-(((R)-2-(dimethylamino)-1-phenylethyl)amino)-6-phenyl-5,6,7,8-tetrahydroquinazolin-2-yl)amino)propyl)cyclohexane-1-carboxylic acid], on human NPR1, half-maximal activity (AC50) was put at 1810 nM and the “Human NPR1 Amax (% of ANP)” value is on record as 90.595 % of ANP. The AC50 at monkey NPR1 (setting [1]) worked out at 1080 nM. For the same compound, on monkey NPR1 (monkey NPR1 CHO-K1 cells), the “Monkey NPR1 Amax (% of ANP)” value is 87.861 % of ANP.
The like results for `CC[C@@H](Nc1nc2c(c(N[C@@H](CNC3CCOCC3)c3ccccc3)n1)C[C@H](c1ccccc1)CC2)[C@H]1CC[C@H](C(=O)O)CC1` [Compound 166, (1R,4r)-4-((R)-1-(((R)-6-phenyl-4-(((R)-1-phenyl-2-((tetrahydro-2H-pyran-4-yl)amino)ethyl)amino)-5,6,7,8-tetrahydroquinazolin-2-yl)amino)propyl)cyclohexane-1-carboxylic acid] were, in that order, 2000 nM, 101.913 % of ANP, 1980 nM and 96.913 % of ANP.
Regarding `CC[C@H]([C@H]1CC[C@H](C(=O)O)CC1)N(C)c1nc2c(c(N[C@@H](CN3CCCCC3)c3cnn(CC(F)(F)F)c3)n1)C[C@H](c1ccccc1)CC2` [Compound 167, (1R,4r)-4-((R)-1-(methyl((R)-6-phenyl-4-(((R)-2-(piperidin-1-yl)-1-(1-(2,2,2-trifluoroethyl)-1H-pyrazol-4-yl)ethyl)amino)-5,6,7,8-tetrahydroquinazolin-2-yl)amino)propyl)cyclohexane-1-carboxylic acid], at human NPR1, the AC50 was 2090 nM and the “Human NPR1 Amax (% of ANP)” value was 112.087 % of ANP. The AC50 at monkey NPR1 (setting [1]) was 1430 nM. At monkey NPR1 (monkey NPR1 CHO-K1 cells), the “Monkey NPR1 Amax (% of ANP)” value is 98.847 % of ANP.
`C[C@@H](Nc1nc2c(c(N[C@@H](CN3C4CCCC3CCC4)c3cnn(C)c3)n1)C[C@H](c1ccccc1)CC2)c1ccc(C(=O)O)c(F)c1` [Compound 168, 4-((R)-1-(((R)-4-(((R)-2-((1S,5S)-9-azabicyclo[3.3.1]nonan-9-yl)-1-(1-methyl-1H-pyrazol-4-yl)ethyl)amino)-6-phenyl-5,6,7,8-tetrahydroquinazolin-2-yl)amino)ethyl)-2-fluorobenzoic acid]: the values for the AC50 on human NPR1 and at monkey NPR1 were 2230 nM and 1540 nM, respectively. The “Human NPR1 Amax (% of ANP)” value on human NPR1 is on record as 96.777 % of ANP. The “Monkey NPR1 Amax (% of ANP)” value at monkey NPR1 (monkey NPR1 CHO-K1 cells) is reported as 93.654 % of ANP.
In the same order, the values of `CC[C@H]([C@H]1CC[C@H](C(=O)O)CC1)N(C)c1nc2c(c(N[C@@H](CN3C4CCCC3COC4)c3cnn(C)c3)n1)C[C@H](c1ccccc1)CC2` [Compound 169, (1R,4r)-4-((R)-1-(((R)-4-(((R)-2-((1R,5S)-3-oxa-9-azabicyclo[3.3.1]nonan-9-yl)-1-(1-methyl-1H-pyrazol-4-yl)ethyl)amino)-6-phenyl-5,6,7,8-tetrahydroquinazolin-2-yl)(methyl)amino)propyl)cyclohexane-1-carboxylic acid] are 2670 nM, 1920 nM, 67.375 % of ANP and 96.574 % of ANP.
Take `CC[C@H]([C@H]1CC[C@H](C(=O)O)CC1)N(C)c1nc2c(c(N[C@@H](CN3CCC[C@H](C)C3)c3cnn(C)c3)n1)CN(c1cccc(Cl)c1)CC2` [Compound 170, (1R,4r)-4-((R)-1-((6-(3-chlorophenyl)-4-(((R)-1-(1-methyl-1H-pyrazol-4-yl)-2-((S)-3-methylpiperidin-1-yl)ethyl)amino)-5,6,7,8-tetrahydropyrido[4,3-d]pyrimidin-2-yl)(methyl)amino)propyl)cyclohexane-1-carboxylic acid]: the results for the AC50 on human NPR1 and on monkey NPR1 (setting [1]) were 2740 nM and 790 nM, respectively. For the same compound, on human NPR1, the “Human NPR1 Amax (% of ANP)” value is 97.591 % of ANP. On monkey NPR1 (monkey NPR1 CHO-K1 cells), the “Monkey NPR1 Amax (% of ANP)” value was 124.109 % of ANP.
In the same order, the values of `CC(C)n1cc([C@H](CN2CCCCC2)Nc2nc(N[C@H](C)c3ccc(C(=O)O)cc3)nc3c2C[C@H](c2ccccc2)CC3)cn1` [Compound 171, 4-((R)-1-(((R)-4-(((R)-1-(1-isopropyl-1H-pyrazol-4-yl)-2-(piperidin-1-yl)ethyl)amino)-6-phenyl-5,6,7,8-tetrahydroquinazolin-2-yl)amino)ethyl)benzoic acid] are 2770 nM, 2320 nM, 96.419 % of ANP and 83.963 % of ANP.
